Values joined by “and” are separate entries in the source; they are usually repeats but may differ in a detail not shown here. Equal entries are not always repeated.
Experiments:
Assay in all cases: Greenhouse test, pre-emergence treatment
SETFA = type: in vivo, Setaria faberi; conditions: 20 DAT
Method in brief: (§1)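 Seeds were sown in loamy sand with approximately 3.0% humus, then sprayed at once with actives suspended or emulsified in water. Pots were watered, hooded until rooting, held at 10-25° C. or 20-35° C. by species for 2 to 4 weeks, and scored 0 (no damage) to 100 (no emergence/complete destruction).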

KCHSC = type: in vivo, Kochia scoparia; conditions: pre-emergence, 20 DAT
Method in brief: as §1

APESV = type: in vivo, Apera spica-venti; conditions: 20 DAT
From the text: The culture containers used were plastic flowerpots containing loamy sand with approximately 3.0% of humus as the substrate. The seeds of the test plants were sown separately for each species.
For the pre-emergence treatment, the active ingredients, which had been suspended or emulsified in water, were applied directly after sowing by means of finely distributing nozzles. The containers were irrigated gently to promote germination and growth and subsequently covered with transparent plastic hoods until the plants had rooted. This cover caused uniform germination of the test plants, unless this had been impaired by the active ingredients.
Depending on the species, the plants were kept at 10-25° C. or 20-35° C., respectively.
The test period extended over 2 to 4 weeks. During this time, the plants were tended, and their response to the individual treatments was evaluated.
Evaluation was carried out using a scale from 0 to 100. 100 means no emergence of the plants, or complete destruction of at least the aerial moieties, and 0 means no damage, or normal course of growth. A moderate herbicidal activity is given at values of at least 60, a good herbicidal activity is given at values of at least 70, and a very good herbicidal activity is given at values of at least 85.
The respective stated components a and b, and if appropriate, c were formulated as a 10% by weight strength emulsion concentrate and, with addition of the amount of solvent system, introduced into the spray liquor used for applying the active compound.
In the examples, the solvent used was water.
In the examples below, using the method of S. R. Colby (1967) “Calculating synergistic and antagonistic responses of herbicide combinations”, Weeds 15, p. 22ff., the value E, which is expected if the activity of the individual active compounds is only additive, was calculated. E=X+Y−(X·Y/100) where • X=percent activity using active compound a at an application rate A; • Y=percent activity using active compound b at an application rate B; • E=expected activity (in %) by a+b at application rates A+B.
If the value found experimentally is higher than the value E calculated according to Colby, a synergistic effect is present.

ECHCG = type: in vivo, Echinocloa crus-galli; conditions: Echinochloa crus-galli, 480 h, 20 DAT, read-out: observed % activity 20 DAT
Method in brief: as §1

ALOMY = type: in vivo, Alopecurus myosuroides; conditions: pre-emergence, pre-emergence, 20 DAT
Method in brief: as §1

PHACA = type: in vivo, Phalaris canariensis; conditions: Phalaris canariensis, pre-emergence, 480 h, pre-emergence, 20 DAT, read-out: observed % activity 20 DAT
Method in brief: as §1

GERPU = type: in vivo, Geranium pusillum; conditions: Geranium pusillum, pre-emergence, 480 h, pre-emergence, 20 DAT, read-out: observed % activity 20 DAT
Method in brief: as §1

LOLMU = type: in vivo, Lolium multiflorum; conditions: Lolium multiflorum, pre-emergence, 480 h, pre-emergence, 20 DAT, read-out: observed % activity 20 DAT
Method in brief: as §1

POLCO = type: in vivo, Polygonum convolvulus; conditions: pre-emergence, 20 DAT
Method in brief: as §1

CC(C)(F)c1nc(N)nc(Nc2c(F)c(F)cc(F)c2F)n1 [compound 2, 6-(1-Fluoro-1-methyl-ethyl)-N4-(2,3,5,6-tetrafluorophenyl)-1,3,5-triazine-2,4-diamine]
inhibition at 1 g/ha (SETFA; Setaria faberi, 480 h, SETFA, use rate 1 g ai/ha, read-out: observed % activity 20 DAT): 80% | inhibition at 2 g/ha (SETFA; Setaria faberi, 480 h, SETFA, use rate 2 g ai/ha, read-out: observed % activity 20 DAT): 95% | inhibition at 4 g/ha (SETFA; Setaria faberi, 480 h, SETFA, use rate 4 g ai/ha, read-out: observed % activity 20 DAT): 95% | observed % activity 20 DAT (SETFA; use rate 2 g ai/ha): 75% and 65% | pest or weed control at 1 g/ha (KCHSC; Bassia scoparia, 480 h, use rate 1 g ai/ha, read-out: observed % activity 20 DAT): 0% | pest or weed control at 2 g/ha (KCHSC; Bassia scoparia, 480 h, use rate 2 g ai/ha, read-out: observed % activity 20 DAT): 50% | inhibition at 1 g/ha (KCHSC; Bassia scoparia, 480 h, KCHSC, use rate 1 g ai/ha, read-out: observed % activity 20 DAT): 45% | inhibition at 2 g/ha (KCHSC; Bassia scoparia, 480 h, KCHSC, use rate 2 g ai/ha, read-out: observed % activity 20 DAT): 80% | inhibition at 4 g/ha (KCHSC; Bassia scoparia, 480 h, KCHSC, use rate 4 g ai/ha, read-out: observed % activity 20 DAT): 90% | inhibition at 8 g/ha (KCHSC; Bassia scoparia, 480 h, KCHSC, use rate 8 g ai/ha, read-out: observed % activity 20 DAT): 80% | observed % activity 20 DAT (KCHSC; KCHSC, use rate 8 g ai/ha): 95% | inhibition at 1 g/ha (APESV; Apera spica-venti, 480 h, APESV, use rate 1 g ai/ha, read-out: observed % activity 20 DAT): 95% | inhibition at 2 g/ha (APESV; Apera spica-venti, 480 h, APESV, use rate 2 g ai/ha, read-out: observed % activity 20 DAT): 95% | observed % activity 20 DAT (APESV; use rate 2 g ai/ha): 90% and 95% | observed % activity 20 DAT (APESV; use rate 4 g ai/ha): 98% | inhibition at 1 g/ha (ECHCG; ECHCG, use rate 1 g ai/ha): 65% | inhibition at 2 g/ha (ECHCG; ECHCG, use rate 2 g ai/ha): 98% | pest or weed control at 1 g/ha (ECHCG; use rate 1 g ai/ha): 65% | inhibition at 1 g/ha (ALOMY; Alopecurus myosuroides, 480 h, ALOMY, use rate 1 g ai/ha, read-out: observed % activity 20 DAT): 60% | inhibition at 2 g/ha (ALOMY; Alopecurus myosuroides, 480 h, ALOMY, use rate 2 g ai/ha, read-out: observed % activity 20 DAT): 70% | inhibition at 4 g/ha (ALOMY; Alopecurus myosuroides, 480 h, ALOMY, use rate 4 g ai/ha, read-out: observed % activity 20 DAT): 90% | pest or weed control at 1 g/ha (ALOMY; Alopecurus myosuroides, 480 h, use rate 1 g ai/ha, read-out: observed % activity 20 DAT): 45% | pest or weed control at 2 g/ha (ALOMY; Alopecurus myosuroides, 480 h, use rate 2 g ai/ha, read-out: observed % activity 20 DAT): 75% | pest or weed control at 4 g/ha (ALOMY; Alopecurus myosuroides, 480 h, use rate 4 g ai/ha, read-out: observed % activity 20 DAT): 90% | observed % activity 20 DAT (ALOMY; ALOMY, use rate 4 g ai/ha): 95% | observed % activity 20 DAT (ALOMY; ALOMY, use rate 8 g ai/ha): 50% and 80% and 95% | inhibition at 1 g/ha (PHACA; PHACA, use rate 1 g ai/ha): 20% | inhibition at 2 g/ha (PHACA; PHACA, use rate 2 g ai/ha): 70% | pest or weed control at 1 g/ha (PHACA; use rate 1 g ai/ha): 20% | pest or weed control at 4 g/ha (PHACA; use rate 4 g ai/ha): 95% | pest or weed control at 8 g/ha (PHACA; use rate 8 g ai/ha): 85% | pest or weed control at 1 g/ha (GERPU; use rate 1 g ai/ha): 0% | pest or weed control at 2 g/ha (GERPU; use rate 2 g ai/ha): 0% | inhibition at 1 g/ha (LOLMU; LOLMU, use rate 1 g ai/ha): 40% | inhibition at 2 g/ha (LOLMU; LOLMU, use rate 2 g ai/ha): 80% | inhibition at 4 g/ha (LOLMU; LOLMU, use rate 4 g ai/ha): 95% | pest or weed control at 1 g/ha (LOLMU; use rate 1 g ai/ha): 20% | pest or weed control at 2 g/ha (LOLMU; use rate 2 g ai/ha): 80% | pest or weed control at 4 g/ha (LOLMU; use rate 4 g ai/ha): 95% | pest or weed control at 1 g/ha (POLCO; Fallopia convolvulus, 480 h, use rate 1 g ai/ha, read-out: observed % activity 20 DAT): 60% | pest or weed control at 2 g/ha (POLCO; Fallopia convolvulus, 480 h, use rate 2 g ai/ha, read-out: observed % activity 20 DAT): 70% | inhibition at 2 g/ha (POLCO; Fallopia convolvulus, 480 h, POLCO, use rate 2 g ai/ha, read-out: observed % activity 20 DAT): 70% | inhibition at 4 g/ha (POLCO; Fallopia convolvulus, 480 h, POLCO, use rate 4 g ai/ha, read-out: observed % activity 20 DAT): 95% | observed % activity 20 DAT (POLCO; POLCO, use rate 1 g ai/ha): 15%
